Test [1] has as its target T1, WT Slo2.1 channels (Homo sapiens, UniProt Q6UVM3).
T1 sequence (Q6UVM3 1-1135): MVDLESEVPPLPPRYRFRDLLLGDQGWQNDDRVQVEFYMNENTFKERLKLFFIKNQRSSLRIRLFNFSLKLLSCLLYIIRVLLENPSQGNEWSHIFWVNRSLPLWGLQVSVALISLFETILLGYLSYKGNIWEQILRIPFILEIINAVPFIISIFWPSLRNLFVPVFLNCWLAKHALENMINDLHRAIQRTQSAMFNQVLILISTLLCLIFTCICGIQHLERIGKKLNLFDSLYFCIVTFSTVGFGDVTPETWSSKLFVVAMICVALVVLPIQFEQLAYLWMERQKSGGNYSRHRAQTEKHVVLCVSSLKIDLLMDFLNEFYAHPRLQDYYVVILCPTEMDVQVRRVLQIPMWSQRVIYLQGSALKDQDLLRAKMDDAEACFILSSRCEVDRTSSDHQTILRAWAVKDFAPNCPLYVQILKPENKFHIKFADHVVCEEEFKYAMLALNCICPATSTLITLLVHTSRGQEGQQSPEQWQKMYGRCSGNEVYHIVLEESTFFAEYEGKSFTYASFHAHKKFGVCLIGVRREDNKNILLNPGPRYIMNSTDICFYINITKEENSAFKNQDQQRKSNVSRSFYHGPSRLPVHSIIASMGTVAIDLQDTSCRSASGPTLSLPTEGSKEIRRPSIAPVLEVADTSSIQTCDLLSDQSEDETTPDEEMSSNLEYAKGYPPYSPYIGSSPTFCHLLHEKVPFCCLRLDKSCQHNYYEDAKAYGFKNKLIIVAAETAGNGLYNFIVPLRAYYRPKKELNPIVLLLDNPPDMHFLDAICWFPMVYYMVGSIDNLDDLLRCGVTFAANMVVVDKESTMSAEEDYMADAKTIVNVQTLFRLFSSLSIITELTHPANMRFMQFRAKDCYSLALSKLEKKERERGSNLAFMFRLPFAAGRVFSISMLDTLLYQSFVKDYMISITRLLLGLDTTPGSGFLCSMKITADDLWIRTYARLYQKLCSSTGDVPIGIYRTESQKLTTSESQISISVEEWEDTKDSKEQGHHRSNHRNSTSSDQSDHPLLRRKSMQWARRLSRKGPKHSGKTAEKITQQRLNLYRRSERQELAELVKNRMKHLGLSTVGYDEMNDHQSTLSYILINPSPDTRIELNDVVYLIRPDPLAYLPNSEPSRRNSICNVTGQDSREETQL
The conditions noted are these: 1 mM NFA; ref Dai et al., 2010; cited from earlier work.

In test [2] the target is T1, WT Slo2.1 channels. Nature of the test: Activation of ISlo2.1 by NFA, two-electrode voltage clamp in oocytes. It counts as cell-based. (In general: Two-electrode voltage clamp is typically applied to oocytes expressing channels or transporters.)
A further test deals with T2, C236A Slo2.1 channels (Homo sapiens, UniProt Q6UVM3, C236A).
T2 sequence (Q6UVM3 1-1135 C236A): T1 sequence (Q6UVM3 1-1135) with C236A
The test is described as above. It counts as cell-based. The conditions noted are these: 1 mM NFA, 0 mV.

The text below walks through data of publication PMC3813382 (The Journal of General Physiology, 2013).

Residue numbers refer to the chain shown, from its start.

One may read the EC50 as the concentration needed to bring the measured effect to its halfway point. A low value points to higher potency in that assay. On to `O=C(O)c1cccnc1Nc1cccc(C(F)(F)F)c1` [NFA, niflumic acid], for which, at WT Slo2.1 channels [1], the effective valence z is reported as 0.48 e and the “midpoint of voltage dependence of channel activation” value is “+95 mV”. Also, at WT Slo2.1 channels [2], it took 2100 ± 100 µM to reach a half-maximal effect (EC50). For the same compound, the “time to peak response of ISlo2.1 during repetitive pulsing” value on WT Slo2.1 channels [2] (6 mM NFA, oocytes injected with ≤1 ng WT cRNA) is approximately 3 min. Further, at C236A Slo2.1 channels, the “response of C236A channels to NFA” value is given as “insensitive to 1 mM NFA”.
